ChEMBL document CHEMBL4420076, “Amylin and calcitonin receptor agonist” (2017)
≈ marks a conversion by molar mass, not a printed value. Numbered stars: 1 amine (or outer) side, 2 acyl side, 3 side chain; on linkers, the order of the positions; unused ones are H or OH. Peptide text beside a SMILES is read from it. * marks the point of attachment. γGlu = O=C(O)[C@H](CCC(=O)[*:2])N[*:1]; C14 diacid = O=C(O)CCCCCCCCCCCCC(=O)*; C12 diacid = O=C(O)CCCCCCCCCCC(=O)*; AEEA = NCCOCCOCC(=O)O

Key:
[1] = Solubility in 100 mM bistrispropane buffer at pH 6.5 incubated for 18 hrs by UPLC analysis; format: physicochemical
[2] = target: T1, Amylin receptor AMY3; CALCR/RAMP3 (Homo sapiens, UniProt O60896+P30988); experiment: Agonist activity at human amylin receptor expressed in BHK570 cells co-expressing RAMP3 assessed as increase in intracellular cAMP concentration incubated for 3 hrs in absence of albumin by CRE luciferase reporter gene assay; format: functional, cell-based
T1 sequence (P30988 whole entry): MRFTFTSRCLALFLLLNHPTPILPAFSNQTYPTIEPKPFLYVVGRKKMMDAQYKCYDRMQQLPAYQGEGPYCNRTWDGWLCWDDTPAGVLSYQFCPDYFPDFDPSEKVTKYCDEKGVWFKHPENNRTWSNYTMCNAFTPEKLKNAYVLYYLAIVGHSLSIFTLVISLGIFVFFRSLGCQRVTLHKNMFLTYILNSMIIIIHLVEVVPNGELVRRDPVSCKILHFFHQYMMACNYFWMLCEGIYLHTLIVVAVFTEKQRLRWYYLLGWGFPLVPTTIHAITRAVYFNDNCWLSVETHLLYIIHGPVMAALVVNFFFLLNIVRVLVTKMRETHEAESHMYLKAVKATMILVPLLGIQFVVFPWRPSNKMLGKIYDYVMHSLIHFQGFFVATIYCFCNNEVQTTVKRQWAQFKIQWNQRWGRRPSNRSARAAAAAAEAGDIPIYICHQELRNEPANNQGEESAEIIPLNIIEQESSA
T1 sequence (O60896 whole entry): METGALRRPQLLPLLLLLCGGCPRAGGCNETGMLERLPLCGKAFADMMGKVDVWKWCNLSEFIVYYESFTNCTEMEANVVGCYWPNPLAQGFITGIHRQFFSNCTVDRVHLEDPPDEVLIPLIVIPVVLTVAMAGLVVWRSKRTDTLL

[3] = target: T2, Calcitonin receptor (Homo sapiens, UniProt P30988); experiment: Agonist activity at human calcitonin receptor expressed in BHK570 cells assessed as increase in intracellular cAMP concentration incubated for 3 hrs in absence of albumin by CRE luciferase reporter gene assay; format: functional, cell-based
T2 sequence (P30988 whole entry): T1 sequence (P30988 whole entry)

[4] = target: T1, Amylin receptor AMY3; CALCR/RAMP3; experiment: Displacement of [125I]-labeled rat amylin from human amylin receptor expressed in BHK tkts13 whole cells co-expressing RAMP3 incubated for 60 mins by scintillation proximity assay; format: cell-based
[5] = system: Rattus norvegicus; experiment: Reduction in food intake in Sprague-Dawley rat at 3 nmol/kg measured 24 to 48 hrs post dose relative to control; format: functional; set-up: scale not given: the % may be the effect or the level left
[6] = system: Rattus norvegicus; experiment: Reduction in food intake in Sprague-Dawley rat at 3 nmol/kg measured 0 to 24 hrs post dose relative to control; format: functional; set-up: scale not given: the % may be the effect or the level left
[7] = Solubility in 100 mM bistrispropane buffer at pH 6.0 incubated for 18 hrs by UPLC analysis; format: physicochemical
[8] = Solubility in 100 mM glycylglycine buffer at pH 5.0 incubated for 18 hrs by UPLC analysis; format: physicochemical
[9] = Solubility in 100 mM bistrispropane buffer at pH 7.5 incubated for 18 hrs by UPLC analysis; format: physicochemical
[10] = Solubility in 100 mM glycylglycine buffer at pH 3.0 incubated for 18 hrs by UPLC analysis; format: physicochemical
[11] = Solubility in 100 mM glycylglycine buffer at pH 4.0 incubated for 18 hrs by UPLC analysis; format: physicochemical
[12] = Solubility in 100 mM bistrispropane buffer at pH 7.0 incubated for 18 hrs by UPLC analysis; format: physicochemical
[13] = Solubility in 100 mM bistrispropane buffer at pH 8.0 incubated for 18 hrs by UPLC analysis; format: physicochemical

Row | solubility at 18 h [1] | EC50 [2] | EC50 [3] | IC50 [4] | solubility at 18 h [7] | solubility at 18 h [8] | solubility at 18 h [9] | solubility at 18 h [10] | solubility at 18 h [11] | solubility at 18 h [12] | solubility at 18 h [13] | Structure (SMILES) | Activity [5] | Activity [6]
1 | 5 µM (≈ 18.2 µg/mL) | 0.023 nM | 0.008 nM | 8.97 nM | – | – | – | – | – | – | – | CC(C)C[C@H](NC(=O)[C@H](C)NC(=O)[C@H](C)NC(=O)[C@@H](NC(=O)[C@H](CO)NC(=O)[C@H](CC(C)C)NC(=O)[C@H](CCC(=O)O)NC(=O)[C@H](CO)NC(=O)[C@H](C)NC(=O)[C@H](CCC(=O)O)NC(=O)CCCCCCCCCCC(=O)O)[C@@H](C)O)C(=O)NCC(=O)N[C@@H](CCCNC(=N)N)C(=O)N[C@@H](CC(C)C)C(=O)N[C@@H](CO)C(=O)N[C@@H](C)C(=O)N[C@@H](CCC(=O)O)C(=O)N[C@@H](CC(C)C)C(=O)N[C@@H](Cc1cnc[nH]1)C(=O)N[C@@H](CCC(=O)O)C(=O)N[C@@H](CC(C)C)C(=O)N[C@@H](C)C(=O)N[C@H](C(=O)N[C@@H](CC(C)C)C(=O)N1CCC[C@H]1C(=O)N[C@@H](CCCNC(=N)N)C(=O)N[C@H](C(=O)N[C@@H](CCC(=O)O)C(=O)N[C@H](C(=O)NCC(=O)N1CCC[C@H]1C(=O)N[C@@H](CCC(=O)O)C(=O)N[C@@H](CO)C(=O)N1CCC[C@H]1C(N)=O)[C@@H](C)O)[C@@H](C)O)[C@@H](C)O ({C12 diacid}-EASELSTAALGRLSAELHELATLPRTETGPESP-NH2) | -12% | 2%
2 | ≥ 200 µM | 0.027 nM | 0.007 nM | 8.38 nM | ≥ 200 µM | ≥ 200 µM | ≥ 200 µM | ≥ 200 µM | ≥ 200 µM | ≥ 200 µM | ≥ 200 µM | CC(C)C[C@H](NC(=O)[C@H](C)NC(=O)[C@H](C)NC(=O)[C@@H](NC(=O)[C@H](CO)NC(=O)[C@H](CC(C)C)NC(=O)[C@H](CCC(=O)O)NC(=O)[C@H](CO)NC(=O)[C@H](C)NC(=O)[C@H](CCC(=O)O)NC(=O)COCCOCCNC(=O)COCCOCCNC(=O)COCCOCCNC(=O)COCCOCCNC(=O)CC[C@H](NC(=O)CC[C@H](NC(=O)CCCCCCCCCCCCC(=O)O)C(=O)O)C(=O)O)[C@@H](C)O)C(=O)NCC(=O)N[C@@H](CCCNC(=N)N)C(=O)N[C@@H](CC(C)C)C(=O)N[C@@H](CO)C(=O)N[C@@H](C)C(=O)N[C@@H](CCC(=O)O)C(=O)N[C@@H](CC(C)C)C(=O)N[C@@H](Cc1cnc[nH]1)C(=O)N[C@@H](CCC(=O)O)C(=O)N[C@@H](CC(C)C)C(=O)N[C@@H](C)C(=O)N[C@H](C(=O)N[C@@H](CC(C)C)C(=O)N1CCC[C@H]1C(=O)N[C@@H](CCCNC(=N)N)C(=O)N[C@H](C(=O)N[C@@H](CCC(=O)O)C(=O)N[C@H](C(=O)NCC(=O)N1CCC[C@H]1C(=O)N[C@@H](CCC(=O)O)C(=O)N[C@@H](CO)C(=O)N1CCC[C@H]1C(N)=O)[C@@H](C)O)[C@@H](C)O)[C@@H](C)O ({C14 diacid-γGlu-γGlu-AEEA-AEEA-AEEA-AEEA}-EASELSTAALGRLSAELHELATLPRTETGPESP-NH2) | -3% | 3%
3 | ≥ 200 µM | 0.006 nM | 0.002 nM | 1.19 nM | ≥ 200 µM | ≥ 200 µM | ≥ 200 µM | ≥ 200 µM | ≥ 200 µM | ≥ 200 µM | ≥ 200 µM | CC(C)C[C@H](NC(=O)[C@H](C)NC(=O)[C@H](C)NC(=O)[C@@H](NC(=O)[C@H](CO)NC(=O)[C@H](CC(C)C)NC(=O)[C@H](CCC(=O)O)NC(=O)[C@H](CO)NC(=O)[C@H](C)NC(=O)[C@H](CCC(=O)O)NC(=O)CCCCCCCCCCCCC(=O)O)[C@@H](C)O)C(=O)NCC(=O)N[C@@H](CCCNC(=N)N)C(=O)N[C@@H](CC(C)C)C(=O)N[C@@H](CO)C(=O)N[C@@H](C)C(=O)N[C@@H](CCC(=O)O)C(=O)N[C@@H](CC(C)C)C(=O)N[C@@H](Cc1cnc[nH]1)C(=O)N[C@@H](CCC(=O)O)C(=O)N[C@@H](CC(C)C)C(=O)N[C@@H](C)C(=O)N[C@H](C(=O)N[C@@H](CC(C)C)C(=O)N1CCC[C@H]1C(=O)N[C@@H](CCCNC(=N)N)C(=O)N[C@H](C(=O)N[C@@H](CCC(=O)O)C(=O)N[C@H](C(=O)NCC(=O)N1CCC[C@H]1C(=O)N[C@@H](CCC(=O)O)C(=O)N[C@@H](CO)C(=O)N1CCC[C@H]1C(N)=O)[C@@H](C)O)[C@@H](C)O)[C@@H](C)O ({C14 diacid}-EASELSTAALGRLSAELHELATLPRTETGPESP-NH2) | -4% | 13.5%
